For one data set, the system named is canine esophagus tissue. Nature of the data set: Esophageal irritation potential, dog model (esophageal infusion, histopathology). To be noted: for Esophageal irritation potential: low dosages on consecutive days (Group 7, Group 8). The data set is classed as in vivo. How it is done:
The esophageal irritation potential of the bisphosphonates is evaluated using a dog model.
The following solutions are prepared:
(1) simulated gastric juice (pH about 2), i.e. the control solution.
(5) simulated gastric juice (pH about 2) containing about 0.20 mg/mL of risedronate sodium on a risedronic acid active basis.
(6) simulated gastric juice (pH about 2) containing about 4.0 mg/mL of tiludronate disodium on a tiludronic acid active basis.
The simulated gastric juice is prepared by dissolving about 960 mg of pepsin (L-585,228000B003, Fisher Chemical) in about 147 mL of 0.90 (wt %) NaCl (aqueous), adding about 3 mL of 1.0 M HCl (aqueous), and adjusting the volume to about 300 mL with deionized water. The pH of the resulting solution is measured and if necessary is adjusted to about 2 using 1.0 M HCl (aqueous) or 1.0 M NaOH (aqueous).
The animals used in the experiments are anesthetized and administered about 50 mL of the appropriate solution over about 30 minutes by infusion into the esophagus using an infusion pump and a rubber catheter. The following treatment experiments are run:
Group 1: This control group contains four animals. Each animal is administered a dosage of about 50 mL of simulated gastric juice [solution (1)] on each of five consecutive days. […]
Group 2: This group contains four animals. […]
Group 3: This group contains five animals. […] The animals are sacrificed about 24 hours after the dose is administered.
Group 4: This group contains five animals. […] The animals are sacrificed about 7 days after the dose is administered.
Group 5: This group contains six animals. […] The animals are administered a total of four dosages. The animals are sacrificed about 7 days after the last dose is administered.
Group 6: This group contains six animals. […] The animals are administered a total of eight dosages. The animals are sacrificed about four days after the last dose is administered.
Group 7: This group contains eight animals. Each animal is administered a dosage of about 50 mL of simulated gastric juice containing about 0.20 mg/mL of risedronate [solution (5)] on each of five consecutive days. […]
Group 8: This group contains four animals. Each animal is administered a dosage of about 50 mL of simulated gastric juice containing about 4.0 mg/mL of tiludronate [solution (6)] on each of five consecutive days. […]
The esophagus from each sacrificed animal is removed and prepared for histopathology using standard techniques by embedding the tissue in paraffin, staining with hematoxylin and eosin. The sections are examined microscopically.

The test system of another data set is esophagus. Conditions: oral administration, patients; cited from earlier work.
A further data set has as its system bone resorption. Conditions: early postmenopausal bone loss (Mortensen et al.); cited from earlier work.
The next data set has as its system bone mineralization. To be noted: doses used clinically; cited from earlier work.
The mark [1] stands for this setting: Group 4: 0.80 mg/mL, 1X, sacrifice 7 days after dosing.

Molecules are shown by their SMILES.

Take `NCCCC(O)(P(=O)(O)O)P(=O)(O)O` [Alendronate, 4-amino-1-hydroxybutylidene-1,1-bisphosphonic acid monosodium trihydrate]: the “Histo-pathology (esophagus)” value with canine esophagus tissue (Group 2 (n = 4): 0.20 mg/mL, about 50 mL in simulated gastric juice pH about 2, 1X daily for 5 days, sacrifice immediately after last dosing, listed as alendronate, monosodium trihydrate) is “deep ulceration of the epithelial surface and marked submucosal inflammation and vacuolation”; in the data set on canine esophagus tissue (Group 3 (n = 5): 0.80 mg/mL, about 50 mL in simulated gastric juice, 1X, sacrifice 24 hours after dosing, listed as alendronate, monosodium trihydrate) it was “intact epithelial surface with very slight submucosal inflammation and vacuolation”; in the data set on canine esophagus tissue (Group 3 (n = 5): 0.80 mg/mL, about 50 mL in simulated gastric juice, 1X, sacrifice 24 hours after dosing, monosodium trihydrate) it was “Intact epithelial”; in the data set on canine esophagus tissue (Group 4 (n = 5): 0.80 mg/mL, about 50 mL in simulated gastric juice, 1X, sacrifice 7 days after dosing, listed as alendronate, monosodium trihydrate) it was “intact epithelium with either minimal inflammation (two of the five animals) or no inflammation (three of the five animals) and no vacuolation”; with canine esophagus tissue (Group 5 (n = 6): 0.80 mg/mL, about 50 mL in simulated gastric juice, 1X weekly for a total of 4 doses, sacrifice 7 days after last dosing, listed as alendronate, monosodium trihydrate), “normal with an intact epithelium and absence of inflammatory cells in the submucosa”; with canine esophagus tissue (Group 5 (n = 6): 0.80 mg/mL, about 50 mL in simulated gastric juice, 1X weekly for a total of 4 doses, sacrifice 7 days after last dosing, monosodium trihydrate) it was “Intact epithelium with”. In addition, the “Histo-pathology (esophagus)” value in the data set on canine esophagus tissue (Group 6 (n = 6): 0.40 mg/mL, about 50 mL in simulated gastric juice, 2X weekly for 4 weeks, sacrifice immediately after last dosing (table; text: about four days after), listed as alendronate, monosodium trihydrate) was “deep ulceration of the epithelial surface and marked submucosal inflammation and vacuolation”. For the same compound, the “Animals with minimal inflammation” value with canine esophagus tissue (setting [1]) is reported as “inflammation (2 of 5”. Further, in the data set with canine esophagus tissue (setting [1]), the “Animals with no inflammation” value is “inflammation (3 of 5”. For the same compound, the “Adverse gastrointestinal (esophageal) effects associated with use” value with esophagus was “associated with esophagitis and/or esophageal ulcers”.

For `O=P(O)(O)C(O)(Cc1cccnc1)P(=O)(O)O` [Risedronate, 1-hydroxy-2-(3-pyridinyl)-ethylidene-1,1-bisphosphonic acid], the “Antiresorptive efficacy of cyclic dosing relative to continuous daily dosing” value in the data set on bone resorption is “cyclic dosing is actually less effective than continuous daily dosing”. Besides, the “Histo-pathology (esophagus)” value with canine esophagus tissue (Group 7 (n = 8): 0.20 mg/mL, about 50 mL in simulated gastric juice, 1X daily for 5 days, sacrifice immediately after last dosing, listed as risedronate) was “deep ulceration of the epithelial surface and marked submucosal inflammation and vacuolation”. The “Animals with deep ulceration of epithelial surface” value in the data set with canine esophagus tissue (Group 7: 0.20 mg/mL, 1X daily for 5 days, sacrifice immediately after last dosing) was “(4 of 8 animals)”. Also, the Esophageal irritation potential result in the data set with canine esophagus tissue is reported as “high”.

Consider `O=P(O)(O)C(Sc1ccc(Cl)cc1)P(=O)(O)O` [Tiludronate, (4-chlorophenyl)thiomethane-1,1-disphosphonic acid], for which the “Histo-pathology (esophagus)” value is “Slight submucosal” with canine esophagus tissue (Group 8 (n = 4): 4.0 mg/mL, about 50 mL in simulated gastric juice, 1X daily for 5 days, sacrifice 24 hours after last dosing (table; text: immediately)); “slight ulceration of the epithelial surface and slight submucosal inflammation and vacuolation” in the data set on canine esophagus tissue (Group 8 (n = 4): 4.0 mg/mL, about 50 mL in simulated gastric juice, 1X daily for 5 days, sacrifice 24 hours after last dosing (table; text: immediately), listed as tiludronate). Moreover, the “Animals with slight submucosal inflammation and vacuolation” value in the data set on canine esophagus tissue (Group 8: 4.0 mg/mL, 1X daily for 5 days) is listed as “vacuolation (3 of 4”. Besides, the Esophageal irritation potential result in the data set on canine esophagus tissue is listed as “high”.

Turning to `CC(O)(P(=O)(O)O)P(=O)(O)O` [etidronate, 1-hydroxyethane-1,1-diphosphonic acid], the “Effect on bone mineralization” value with bone mineralization is “impairs mineralization at doses used clinically”.

With `NCCC(O)(P(=O)(O)O)P(=O)(O)O` [pamidronate, 3-amino-1-hydroxypropylidene-1,1-bisphosphonic acid], in the data set with esophagus, the “Adverse gastrointestinal (esophageal) effects associated with use” value is listed as “associated with esophageal ulcers”.

The record behind these values is US6465443B2, “Method for inhibiting bone resorption” (Merck & Co., Inc., priority 1997, dated 2002).
